Data taken from ChEMBL document CHEMBL1146971, “Discovery of novel heterocyclic factor VIIa inhibitors” (Bioorg Med Chem Lett, 2006).

Columns and labels:
[1] = species: Homo sapiens; assay: Selectivity for f7a over trypsin
[2] = biological target: T1, Coagulation factor VII (Homo sapiens, UniProt P08709); assay: Binding affinity to f7a
T1 sequence (P08709 whole entry): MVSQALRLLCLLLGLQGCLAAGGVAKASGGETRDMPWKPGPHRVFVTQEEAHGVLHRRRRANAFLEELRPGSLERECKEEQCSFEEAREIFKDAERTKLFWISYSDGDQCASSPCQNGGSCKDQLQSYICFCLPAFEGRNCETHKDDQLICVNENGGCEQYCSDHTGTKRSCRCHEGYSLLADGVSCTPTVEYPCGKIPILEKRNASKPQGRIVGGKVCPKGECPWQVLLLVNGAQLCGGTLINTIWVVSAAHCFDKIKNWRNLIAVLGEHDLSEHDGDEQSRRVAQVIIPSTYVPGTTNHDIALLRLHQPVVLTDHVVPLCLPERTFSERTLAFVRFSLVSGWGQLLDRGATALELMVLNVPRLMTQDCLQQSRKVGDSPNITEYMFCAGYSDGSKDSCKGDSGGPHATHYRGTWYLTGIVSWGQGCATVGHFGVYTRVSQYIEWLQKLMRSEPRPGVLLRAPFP

[3] = biological target: Prothrombin (Homo sapiens, UniProt P00734); assay: Binding affinity to thrombin
[4] = biological target: Trypsin (Homo sapiens, UniProt P07477+P07478+P35030); assay: Binding affinity to trypsin; assay type: protein assay
[5] = biological target: Coagulation factor X (Homo sapiens, UniProt P00742); assay: Binding affinity to f10a
Sequence of Coagulation factor X (P00742 41-179 limits assumed): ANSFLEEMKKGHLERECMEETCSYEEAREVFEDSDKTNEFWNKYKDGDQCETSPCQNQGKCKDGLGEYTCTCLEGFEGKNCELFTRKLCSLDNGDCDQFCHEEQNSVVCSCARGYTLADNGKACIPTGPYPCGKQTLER
Sequence of Coagulation factor X (P00742 235-488 limits assumed): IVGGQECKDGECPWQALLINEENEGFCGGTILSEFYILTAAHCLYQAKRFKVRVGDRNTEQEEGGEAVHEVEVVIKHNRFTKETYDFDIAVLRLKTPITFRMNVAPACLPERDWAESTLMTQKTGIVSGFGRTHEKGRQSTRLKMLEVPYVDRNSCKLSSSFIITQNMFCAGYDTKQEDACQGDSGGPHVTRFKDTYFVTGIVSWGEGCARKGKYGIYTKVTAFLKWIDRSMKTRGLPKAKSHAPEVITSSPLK

Selectivity ratio [1] | Ki [2] | Ki [3] | Ki [4] | Ki [5] | SMILES
67 | 2.4 µM |  |  |  | Nc1ccc2[nH]c(-c3cc(CC(=O)O)cc(-c4ccccc4)c3O)cc2n1
> 13 | 12 µM |  |  |  | NC(=O)Nc1cccc(-c2cc(CC(=O)O)cc(-c3cc4[nH]c(N)ccc-4n3)c2O)c1
> 7000 | 0.02 µM |  |  |  | Nc1ccc2[nH]c(-c3cc(CC(=O)O)cc(-c4cccc(CNC(=O)Nc5ccccc5)c4)c3O)cc2n1
 | 0.004 µM | 2.9 µM | 0.4 µM | 0.05 µM | N=C(N)c1ccc2[nH]c(-c3cc(CC(=O)O)cc(-c4cccc([N+](=O)[O-])c4)c3O)cc2c1
> 100 | 1.4 µM |  |  |  | CN(C)CCNC(=O)NCc1cccc(-c2cc(CC(=O)O)cc(-c3cc4[nH]c(N)ccc-4n3)c2O)c1
84 | 2.5 µM |  |  |  | Nc1ccc2[nH]c(-c3cc(CC(=O)O)cc(-c4cccc(O)c4)c3O)cc2n1
 | 11 µM | > 150 µM | > 150 µM | > 150 µM | O=C(O)Cc1cc(-c2cccc([N+](=O)[O-])c2)c(O)c(-c2nc3ccccc3[nH]2)c1
16 | 7.4 µM |  |  |  | CS(=O)(=O)c1cccc(-c2cc(CC(=O)O)cc(-c3cc4[nH]c(N)ccc-4n3)c2O)c1
 |  | > 150 µM | 11 µM | 0.32 µM | N=C(N)c1ccc2[nH]c(-c3cc(CC(=O)O)cc(-c4cccc([N+](=O)[O-])c4)c3O)nc2c1
 | 39 µM | > 150 µM | > 150 µM | > 150 µM | Nc1ccc2[nH]c(-c3cc(CC(=O)O)cc(-c4cccc([N+](=O)[O-])c4)c3O)nc2n1
400 |  | 44 µM | 120 µM | 3.5 µM | Nc1ccc2[nH]c(-c3cc(CC(=O)O)cc(-c4cccc([N+](=O)[O-])c4)c3O)cc2n1
